Assay results from ChEMBL document CHEMBL4346715, “Antibacterial activity study of 1,2,4-triazole derivatives” (Eur J Med Chem, 2019).

Assays:
Escherichia coli [1] = experiment: Antibacterial activity against Escherichia coli incubated for 18 hrs post 30 mins pre-diffusion by disk diffusion method; type: functional
Staphylococcus aureus [2] = experiment: Antibacterial activity against Staphylococcus aureus incubated for 18 hrs post 30 mins pre-diffusion by disk diffusion method; type: functional
Escherichia coli [3] = experiment: Antibacterial activity against Escherichia coli; type: functional
Staphylococcus aureus [4] = experiment: Antibacterial activity against Staphylococcus aureus; type: functional
Bacillus subtilis = experiment: Antibacterial activity against Bacillus subtilis; type: functional
Candida albicans = experiment: Antifungal activity against Candida albicans; type: functional
Aspergillus niger = experiment: Antifungal activity against Aspergillus niger; type: functional
Pseudomonas aeruginosa [5] = experiment: Antibacterial activity against Pseudomonas aeruginosa; type: functional
Streptococcus pneumoniae = experiment: Antibacterial activity against Streptococcus pneumoniae; type: functional
Clostridium tetani = experiment: Antibacterial activity against Clostridium tetani; type: functional
Listeria monocytogenes = experiment: Antibacterial activity against Listeria monocytogenes ATCC 35152 after 24 hrs by broth microdilution method; type: functional; conditions: ATCC 35152, 24 h
Staphylococcus aureus [6] = experiment: Antibacterial activity against Staphylococcus aureus ATCC 49444 after 24 hrs by broth microdilution method; type: functional; conditions: ATCC 49444, 24 h
Pseudomonas aeruginosa [7] = experiment: Antibacterial activity against Pseudomonas aeruginosa ATCC 27853 after 24 hrs by broth microdilution method; type: functional; conditions: ATCC 27853, 24 h
Salmonella typhimurium = experiment: Antibacterial activity against Salmonella typhimurium ATCC 14028 after 24 hrs by broth microdilution method; type: functional, Salmonella enterica subsp. enterica serovar Typhimurium; conditions: Salmonella enterica, ATCC 14028, 24 h
Escherichia coli [8] = experiment: Antibacterial activity against Escherichia coli after 24 hrs by broth microdilution method; type: functional

Measured: MIC

Fc1cccc(-c2nnc(Sc3cc(Cl)nc(Sc4ccccc4)n3)[nH]2)c1
1.6 to 250 µg/mL: Escherichia coli [1] | Staphylococcus aureus [2]

CSc1nc(Cl)cc(Sc2nnc(-c3cccc(F)c3)[nH]2)n1
1.6 to 250 µg/mL: Escherichia coli [1] | Staphylococcus aureus [2]

CC/C=N/n1c(S)nnc1-c1ccncc1
10.2 to 162 µg/mL: Escherichia coli [3] | Staphylococcus aureus [4] | Bacillus subtilis | Candida albicans | Aspergillus niger | Pseudomonas aeruginosa [5]

Cc1nn(-c2ccccc2)c(-n2cncn2)c1-c1cc(-c2ccccc2)nc2nc3ccccc3n12
62.5 to 250 µg/mL: Escherichia coli [3] | Staphylococcus aureus [4] | Streptococcus pneumoniae | Bacillus subtilis | Clostridium tetani

COc1ccc(-c2cc(-c3c(C)nn(-c4ccccc4)c3-n3cncn3)n3c(n2)nc2ccccc23)cc1
62.5 to 250 µg/mL: Escherichia coli [3] | Staphylococcus aureus [4] | Streptococcus pneumoniae | Bacillus subtilis | Clostridium tetani

Cc1nc(-c2ccccc2)sc1-c1nnc(S)n1/N=C/c1ccc(Cl)cc1Cl
1.95 to 62.5 µg/mL: Listeria monocytogenes | Staphylococcus aureus [6] | Pseudomonas aeruginosa [7] | Salmonella typhimurium | Escherichia coli [8]

CSc1nc(Cl)cc(Sc2nnc(-c3cccc(C(F)(F)F)c3)[nH]2)n1
1.6 to 250 µg/mL: Escherichia coli [1] | Staphylococcus aureus [2]

Cc1nc(-c2ccccc2)sc1-c1nnc(S)n1/N=C/c1c(Cl)cccc1Cl
1.95 to 62.5 µg/mL: Listeria monocytogenes | Staphylococcus aureus [6] | Pseudomonas aeruginosa [7] | Salmonella typhimurium | Escherichia coli [8]

Fc1cc(F)cc(-c2nnc(Sc3cc(Cl)nc(Sc4ccccc4)n3)[nH]2)c1
1.6 to 250 µg/mL: Escherichia coli [1] | Staphylococcus aureus [2]

Cc1cc(C)cc(-c2nnc(Sc3cc(Cl)nc(Sc4ccccc4)n3)[nH]2)c1
1.6 to 250 µg/mL: Escherichia coli [1] | Staphylococcus aureus [2]

Cc1nn(-c2ccccc2)c(-n2cncn2)c1-c1cc(-c2ccc(-c3cc[nH]c3)cc2)nc2nc3ccccc3n12
62.5 to 250 µg/mL: Escherichia coli [3] | Staphylococcus aureus [4] | Streptococcus pneumoniae | Bacillus subtilis | Clostridium tetani

C=CC/C=N/n1c(S)nnc1-c1ccncc1
10.2 to 162 µg/mL: Escherichia coli [3] | Staphylococcus aureus [4] | Bacillus subtilis | Candida albicans | Aspergillus niger | Pseudomonas aeruginosa [5]

FC(F)(F)c1cc(-c2nnc(Sc3cc(Cl)ncn3)[nH]2)cc(C(F)(F)F)c1
1.6 to 250 µg/mL: Escherichia coli [1] | Staphylococcus aureus [2]

FC(F)(F)c1ccc(-c2nnc(Sc3cc(Cl)nc(Sc4ccccc4)n3)[nH]2)cc1
1.6 to 250 µg/mL: Escherichia coli [1] | Staphylococcus aureus [2]

Sc1nnc(-c2ccncc2)n1/N=C/c1ccc(Br)cc1
10.2 to 162 µg/mL: Escherichia coli [3] | Staphylococcus aureus [4] | Bacillus subtilis | Candida albicans | Aspergillus niger | Pseudomonas aeruginosa [5]

OCCCCSc1nc(Cl)cc(Sc2nnc(-c3cc(C(F)(F)F)cc(C(F)(F)F)c3)[nH]2)n1
1.6 to 250 µg/mL: Escherichia coli [1] | Staphylococcus aureus [2]

Cc1nc(-c2ccccc2)sc1-c1nnc(S)n1/N=C/c1ccc(F)cc1
1.95 to 62.5 µg/mL: Listeria monocytogenes | Staphylococcus aureus [6] | Pseudomonas aeruginosa [7] | Salmonella typhimurium | Escherichia coli [8]

Cc1nn(-c2ccccc2)c(-n2cncn2)c1-c1cc(-c2ccc(O)cc2)nc2nc3ccccc3n12
62.5 to 250 µg/mL: Escherichia coli [3] | Staphylococcus aureus [4] | Streptococcus pneumoniae | Bacillus subtilis | Clostridium tetani

Cc1nc(-c2ccccc2)sc1-c1nnc(S)n1/N=C/c1cccc(Cl)c1
1.95 to 62.5 µg/mL: Listeria monocytogenes | Staphylococcus aureus [6] | Pseudomonas aeruginosa [7] | Salmonella typhimurium | Escherichia coli [8]

C/C=N/n1c(S)nnc1-c1ccncc1
10.2 to 162 µg/mL: Escherichia coli [3] | Staphylococcus aureus [4] | Bacillus subtilis | Candida albicans | Aspergillus niger | Pseudomonas aeruginosa [5]

Cc1nc(-c2ccccc2)sc1-c1nnc(S)n1/N=C/c1cccc([N+](=O)[O-])c1
1.95 to 62.5 µg/mL: Listeria monocytogenes | Staphylococcus aureus [6] | Pseudomonas aeruginosa [7] | Salmonella typhimurium | Escherichia coli [8]

CCC/C=N/n1c(S)nnc1-c1ccncc1
10.2 to 162 µg/mL: Escherichia coli [3] | Staphylococcus aureus [4] | Bacillus subtilis | Candida albicans | Aspergillus niger | Pseudomonas aeruginosa [5]

CSc1nc(Cl)cc(Sc2nnc(-c3cc(F)cc(F)c3)[nH]2)n1
1.6 to 250 µg/mL: Escherichia coli [1] | Staphylococcus aureus [2]

Cc1ccc(-c2cc(-c3c(C)nn(-c4ccccc4)c3-n3cncn3)n3c(n2)nc2ccccc23)cc1
62.5 to 250 µg/mL: Escherichia coli [3] | Staphylococcus aureus [4] | Streptococcus pneumoniae | Bacillus subtilis | Clostridium tetani

Cc1nc(-c2ccccc2)sc1-c1nnc(S)n1/N=C/c1ccc(Br)cc1
1.95 to 62.5 µg/mL: Listeria monocytogenes | Staphylococcus aureus [6] | Pseudomonas aeruginosa [7] | Salmonella typhimurium | Escherichia coli [8]

Cc1ccc(/C=N/n2c(S)nnc2-c2ccncc2)cc1
10.2 to 162 µg/mL: Escherichia coli [3] | Staphylococcus aureus [4] | Bacillus subtilis | Candida albicans | Aspergillus niger | Pseudomonas aeruginosa [5]
